Measured values published in patent US20120232070A1, “Use of Indole Derivatives as Nurr-1 Activators for the Application Thereof as a Medicament for the Treatment of Parkinson's Disease” (Laboratoires Fournier SA, priority 2009, published 2012).

How the values were obtained:
[1] = biological target: hNurr1_RXRαFL (NURR1/RXRα heterodimer) (Homo sapiens, UniProt P19793+P43354); assay: Transactivation assay in Cos-7 cells, NURR-1-Gal4 / RXRα, luciferase reporter; type: cell-based; conditions: for Emax: COS-7, read-out: hNurr1_RXRαFL Eff (%), efficacy in % relative to the reference XCT0135908 at 2·10^−5 M (=100%); for EC50: Cos-7 cells, overnight incubation; for hNurr1_RXRαFL Eff (%): efficacy in % relative to the reference XCT0135908 at 2·10^−5 M (=100%)
Method: (§1) First, the capacity of the compounds according to the invention for acting as an activator of the heterodimers formed by the NURR-1 nuclear receptor and the RXR nuclear receptors was measured by an in vitro assay.
(§2) A transactivation assay was used as a primary screening assay. Cos-7 cells were co-transfected with a plasmid expressing a chimera of the human receptor NURR-1-Gal4, a plasmid expressing the human receptor RXR (RXRα or RXRγ receptor) and a reporter plasmid 5Gal4pGL3-TK-Luc. The transfections were performed by means of a chemical agent (Jet PEI).
(§3) The transfected cells were distributed in 384-well plates and left resting for 24 hours.
(§4) After 24 hours, the culture medium was changed. The products according to the invention were added (final concentration between 10^−4 and 3·10^−10 M) to the culture medium. After overnight incubation, luciferase expression was measured after addition of “SteadyGlo” according to the manufacturer's instructions (Promega).
(§5) 4-[[6-Methyl-2-phenyl-5-(2-prop enyl)-4-pyrimidinyl]amino]-benzoic acid (called XCT0135908, which was described in the article by Wallen-Mackenzie et al. published in Genes & Development 17, pages 3036-3047) at 2·10^−5 M (RXR agonist) was used as reference.
(§6) The levels of induction (designated by “efficiency”) were calculated relative to the baseline activity of each heterodimer. The results were expressed as a percentage of the level of induction relative to the level of induction obtained with the reference (the level of induction of the reference is arbitrarily taken to be 100%).

[2] = biological target: hNurr1_RXRγFL (NURR1/RXRγ heterodimer) (Homo sapiens, UniProt P43354+P48443); assay: Transactivation assay in Cos-7 cells, NURR-1-Gal4 / RXRγ, luciferase reporter; type: cell-based; conditions: for Emax: COS-7, read-out: hNurr1_RXRγFL Eff (%), efficacy in % relative to the reference XCT0135908 at 2·10^−5 M (=100%); for EC50: Cos-7 cells, overnight incubation
Method: as §1, §2, §3, §4, §5, §6

Chain of hNurr1_RXRγFL (NURR1/RXRγ heterodimer) (P43354 328-598): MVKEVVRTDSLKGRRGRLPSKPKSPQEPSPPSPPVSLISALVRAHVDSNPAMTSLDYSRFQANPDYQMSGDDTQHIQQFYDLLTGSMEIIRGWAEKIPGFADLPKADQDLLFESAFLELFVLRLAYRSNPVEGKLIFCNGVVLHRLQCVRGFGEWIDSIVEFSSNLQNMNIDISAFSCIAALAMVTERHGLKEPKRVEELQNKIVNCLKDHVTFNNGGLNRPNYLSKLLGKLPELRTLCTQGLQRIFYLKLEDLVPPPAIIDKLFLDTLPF
Chain of hNurr1_RXRγFL (NURR1/RXRγ heterodimer) (P48443 whole entry, the tested form may be a part): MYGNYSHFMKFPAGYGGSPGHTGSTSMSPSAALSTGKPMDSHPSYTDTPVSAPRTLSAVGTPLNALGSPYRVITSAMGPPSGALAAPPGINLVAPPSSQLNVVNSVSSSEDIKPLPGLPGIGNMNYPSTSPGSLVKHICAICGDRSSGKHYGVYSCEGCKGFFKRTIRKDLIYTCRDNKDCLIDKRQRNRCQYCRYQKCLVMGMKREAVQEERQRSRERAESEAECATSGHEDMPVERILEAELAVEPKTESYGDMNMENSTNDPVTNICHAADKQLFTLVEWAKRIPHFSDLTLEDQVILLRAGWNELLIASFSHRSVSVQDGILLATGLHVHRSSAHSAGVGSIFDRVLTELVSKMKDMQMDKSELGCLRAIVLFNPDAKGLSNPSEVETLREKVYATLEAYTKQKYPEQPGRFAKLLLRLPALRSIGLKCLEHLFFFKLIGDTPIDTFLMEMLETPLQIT
Chain of hNurr1_RXRαFL (NURR1/RXRα heterodimer) (P19793 whole entry, the tested form may be a part): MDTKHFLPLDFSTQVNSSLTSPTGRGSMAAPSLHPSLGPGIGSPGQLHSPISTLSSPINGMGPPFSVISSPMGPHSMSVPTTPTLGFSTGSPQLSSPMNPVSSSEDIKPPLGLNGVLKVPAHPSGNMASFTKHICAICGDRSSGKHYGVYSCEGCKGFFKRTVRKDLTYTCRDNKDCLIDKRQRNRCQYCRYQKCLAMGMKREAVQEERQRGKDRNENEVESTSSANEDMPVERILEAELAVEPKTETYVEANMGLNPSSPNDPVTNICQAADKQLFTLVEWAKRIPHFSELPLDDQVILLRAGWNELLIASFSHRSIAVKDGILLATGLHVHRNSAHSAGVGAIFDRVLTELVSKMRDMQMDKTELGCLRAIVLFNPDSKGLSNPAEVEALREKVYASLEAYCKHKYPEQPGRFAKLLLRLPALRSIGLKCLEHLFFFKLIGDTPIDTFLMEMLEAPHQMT
Chain of hNurr1_RXRαFL (NURR1/RXRα heterodimer) (P43354 328-598): as the sequence (P43354 328-598) above

SMILES | Emax [1] | EC50 [1] | Emax [2] | EC50 [2] | hNurr1_RXRαFL Eff (%) [1]
CC(C)(C)c1cccc(S(=O)(=O)n2c(Cc3cc(F)cc(C(=O)O)c3)cc3cc(C(F)(F)F)ccc32)c1 [Example 200, 3-[[1-[[3-(1,1-dimethylethyl)-phenyl]sulfonyl]-5-trifluoromethyl-1H-indol-2-yl]methyl]-5-fluorobenzoic acid] | 93% | – | – | – | –
O=C(O)c1ccc(Cc2cc3cc(Cl)ccc3n2S(=O)(=O)c2ccc3c(c2)OCCCO3)cc1 [Example 178] | 45% | 1030 nM | 36% | 1200 nM | –
CC(C)(C)c1cccc(S(=O)(=O)n2c(Cc3ccc(C(=O)NS(=O)(=O)c4ccccc4)cc3)cc3cc(C(F)(F)F)ccc32)c1 [Example 229, N-[4-[[1-[[3-(1,1-dimethylethyl)phenyl]sulfonyl]-5-(trifluoromethyl)-1H-indol-2-yl]methyl]benzoyl]-benzenesulfonamide] | 60% | 157 nM | 70% | 303 nM | –
CC(C)c1ccc(S(=O)(=O)n2c(Cc3csc(C(=O)O)c3)cc3cc(C(F)(F)F)ccc32)cc1 [Example 72, 4-[[1-[[4-(1-methylethyl)-phenyl]sulfonyl]-5-trifluoromethyl-1H-indol-2-yl]methyl]-thiophene-2-carboxylic acid] | 131% | 72 nM | – | – | –
COc1ccc(Cc2cc3cc(C(F)(F)F)ccc3n2S(=O)(=O)c2cccc(C(C)(C)C)c2)cc1C(=O)O [Example 202, 3-[[1-[[3-(1,1-dimethylethyl)-phenyl]sulfonyl]-5-trifluoromethyl-1H-indol-2-yl]methyl]-6-methoxybenzoic acid] | 104% | 19 nM | – | – | –
C=C(c1ccc(C(=O)O)s1)c1cc2cc(C(F)(F)F)ccc2n1S(=O)(=O)c1cccc(C(C)(C)C)c1 [Example 96, 5-[1-[1-[[3-(1,1-dimethylethyl)-phenyl]sulfonyl]-5-(trifluoromethyl)-1H-indol-2-yl]-1-ethenyl]-thiophene-2-carboxylic acid] | 54% | 339 nM | – | – | –
CC(C)(C)c1cccc(S(=O)(=O)n2c(C(=O)c3ccc(C(=O)O)s3)cc3cc(C(F)(F)F)ccc32)c1 [Example 94, 5-[[1-[[3-(1,1-dimethylethyl)-phenyl]sulfonyl]-5-trifluoromethyl-1H-indol-2-yl]-carbonyl]-thiophene-2-carboxylic acid] | 106% | 1240 nM | – | – | –
CC(C)(C)c1cccc(S(=O)(=O)n2c(Cc3ccc(C(=O)O)cc3Cl)cc3cc(C(F)(F)F)ccc32)c1 [Example 205, 4-[[1-[[3-(1,1-dimethylethyl)-phenyl]sulfonyl]-5-trifluoromethyl-1H-indol-2-yl]methyl]-3-chlorobenzoic acid] | 75% | 98 nM | – | – | –
CC(C)(C)c1cccc(S(=O)(=O)n2c(Cc3cc(C(=O)O)c(F)cc3Cl)cc3cc(C(F)(F)F)ccc32)c1 [Example 203, 3-[[1-[[3-(1,1-dimethylethyl)-phenyl]sulfonyl]-5-trifluoromethyl-M-indol-2-yl]methyl]-4-chloro-6-fluorobenzoic acid] | – | 85 nM | – | – | 83%
COc1ccc(C(=O)O)cc1Cc1cc2cc(C(F)(F)F)ccc2n1S(=O)(=O)c1cccc(C(C)(C)C)c1 [Example 208, 3-[[1-[[3-(1,1-dimethylethyl)-phenyl]sulfonyl]-5-trifluoromethyl-1H-indol-2-yl]methyl]-4-methoxybenzoic acid] | 31% | 240 nM | – | – | –
CN1CCOc2ccc(S(=O)(=O)n3c(Cc4ccc(C(=O)O)o4)cc4cc(C(F)(F)F)ccc43)cc21 [Example 75, 5-[[1-[(4-methyl-3,4-dihydro-2H-benzo[1,4]oxazin-6-yl)-sulfonyl]-5-trifluoromethyl-1H-indol-2-yl]methyl]-furan-2-carboxylic acid] | 114% | 66 nM | – | – | –
CC(C)(C)c1cccc(S(=O)(=O)n2c(C(O)c3ccc(C(=O)O)s3)cc3cc(C(F)(F)F)ccc32)c1 (stereo not shown) [Example 91, 5-[[1-[[3-(1,1-dimethylethyl)-phenyl]sulfonyl]-5-trifluoromethyl-1H-indol-2-yl]hydroxymethyl]-thiophene-2-carboxylic acid] | 100% | 72 nM | – | – | –
O=C(O)c1ccc(Cc2cc3cc(C(F)(F)F)ccc3n2S(=O)(=O)c2ccc(C(=O)N3CCOCC3)cc2)cc1 [Example 129, 4-[[1-[4-(morpholine-4-carbonyl)benzenesulfonyl]-5-(trifluoromethyl)-1H-indol-2-yl]methyl]benzoic acid] | 41% | 804 nM | – | – | –
CC(C)(C)c1cccc(S(=O)(=O)n2c(Cc3cc(F)cc(C(=O)O)c3)cc3cc(C(F)(F)F)ccc32)c1 [Example 201, 3-[[1-[[3-(1,1-dimethylethyl)-phenyl]sulfonyl]-5-trifluoromethyl-1H-indol-2-yl]methyl]-5-fluorobenzoic acid] | – | – | – | – | 96%
CN1CCOc2ccc(S(=O)(=O)n3c(Cc4csc(C(=O)O)c4)cc4cc(C(F)(F)F)ccc43)cc21 [Example 74, 4-[[1-[(4-methyl-3,4-dihydro-2H-benzo[1,4]oxazin-6-yl)-sulfonyl]-5-trifluoromethyl-1H-indol-2-yl]methyl]-thiophene-2-carboxylic acid] | 150% | 40 nM | – | – | –
O=C(O)c1ccc(Cc2cc3cc(Cl)ccc3n2S(=O)(=O)c2ccc3c(c2)OCCO3)o1 [Example 79, 5-[[5-chloro-1-[(2,3-dihydro-benzo[1,4]dioxin-6-yl)sulfonyl]-1H-indol-2-yl]methyl]-furan-2-carboxylic acid] | 147% | 724 nM | – | – | –
CN1CCOc2ccc(S(=O)(=O)n3c(Cc4cc(C(=O)O)co4)cc4cc(C(F)(F)F)ccc43)cc21 [Example 76, 5-[[1-[[4-methyl-3,4-dihydro-2H-benzo[1,4]oxazin-6-yl)-sulfonyl]-5-trifluoromethyl-1H-indol-2-yl]methyl]-furan-3-carboxylic acid] | 138% | 63 nM | – | – | –
Cn1cc(Cc2cc3cc(C(F)(F)F)ccc3n2S(=O)(=O)c2cccc(C(C)(C)C)c2)cc1C(=O)O [Example 87, 4-[[1-[[3-(1,1-dimethylethyl)-phenyl]sulfonyl]-5-trifluoromethyl-1H-indol-2-yl]methyl]-1-methyl-pyrrol-2-yl-carboxylic acid] | 123% | 30 nM | – | – | –
CC(C)(C)c1cccc(S(=O)(=O)n2c(C(C)(O)c3ccc(C(=O)O)s3)cc3cc(C(F)(F)F)ccc32)c1 (stereo not shown) [Example 95, 5-[1-[1-[[3-(1,1-dimethylethyl)-phenyl]sulfonyl]-5-(trifluoromethyl)-1H-indol-2-yl]-1-hydroxyethyl]-thiophene-2-carboxylic acid] | 99% | 209 nM | – | – | –
O=C(O)c1cc(Cc2cc3cc(Cl)ccc3n2S(=O)(=O)c2ccc3c(c2)OCCO3)cs1 [Example 78] | 116% | 331 nM | – | – | –
COc1c(Cc2cc3cc(C(F)(F)F)ccc3n2S(=O)(=O)c2cccc(C(C)(C)C)c2)cccc1C(=O)O [Example 207, 3-[[1-[[3-(1,1-dimethylethyl)-phenyl]sulfonyl]-5-trifluoromethyl-1H-indol-2-yl]methyl]-2-methoxybenzoic acid] | 48% | 513 nM | – | – | –
CC(C)(C)c1cccc(S(=O)(=O)n2c(Cc3cc(C(=O)O)ccc3F)cc3cc(C(F)(F)F)ccc32)c1 [Example 199, 3-[[1-[[3-(1,1-dimethylethyl)-phenyl]sulfonyl]-5-trifluoromethyl-1H-indol-2-yl]methyl]-4-fluorobenzoic acid] | 118% | 22 nM | – | – | –
